According to article PMC9381536, “Non-apoptotic cell death induction via sapogenin based supramolecular particles” (Scientific Reports, 2022):

What was measured:
[1] = Measurement of particle diameter via Zeta Sizer; assay type: physicochemical; details: PBS, DLS
Protocol: AG-08 was dissolved in DMSO a 1000-fold concentrated stock and added into the filtered PBS. Then particle diameter was immediately measured via zeta-sizer (DLS–Particulate Systems). Measurement was repeated in triplicate.

[2] = Cytotoxic activity after freeze–thaw cycle; assay type: cell-based; details: solution, no change in chemical structure
[3] = system: HCC1937 cells; assay: Cell viability with Tween 20 blocking particle formation; assay type: cell-based, Human; details: HCC1937, 24 h
Protocol: Figure 1 AG-08 mediated cytotoxicity relies on the supramolecular structures. (A) Structure of AG-08. (B) The scanning transmission electron micrograph of 16 µM AG-08 in PBS. Figure is a representative image of stained sample with uranyl acetate (5683 × magnification; scale bar 600 nm). (C) After 3 h incubation of Nile red solution with AG-08 or AG, fluorescence intensity of Nile red was measured. (D) AG-08, Staurosporine (Sta) or vehicle samples prepared in the cell condition medium was filtrated by 220 nm filter and HCC1937 cells were exposed to the filtrates. After 24 h, the viability of cells was measured and represented as a percentage of that of the vehicle control. The error bars represent mean value ± s.d. (n = 3). *p < 0.05, **p < 0.005, ***p < 0.001. […] Cell viability was detected after 24 h incubation. […]
To verify that the activity of AG-08 arises from its supramolecular structures, freshly prepared AG-08 solutions were filtered using 220 nm-filters to remove AG-08 supramolecular particles from medium, and the filtrates were analyzed for their cytotoxicity. […]
Figure 5 The cytotoxic activity of analogs depends on particle formation like AG-08. […] The level of released LDH was calculated as fold change relative to vehicle. […] After 24 h, cell viability was measured. […] Cell viability after 24 h was measured. […]

## Cc1ccc(S(=O)(=O)OC2CCC3(C)C4=CCC5(C)C(C6(C)CCC(C(C)(C)O)O6)C(O)CC5(C)C4C=CC3C2(C)C)cc1 (stereo not shown) [AG-08]
[1]
  Diameter of supramolecular structures (hydrodynamic): 153.2 ± 4.6
  polydispersity index: 0.218
[2]
  cytotoxic activity after one freeze–thaw cycle: lost
[3]
  cell death in presence of Tween 20 (1:40,000): inhibited
